Assay results taken from article PMC2709226 (Plant Molecular Biology, 2008).

Legend:
acINV [1] = biological target: acINV (Allium cepa, UniProt O81083, W440Y); test: biochemical
acINV [2] = biological target: acINV (Allium cepa, UniProt O81083); test: biochemical

Work on `OC[C@H]1O[C@@](CO)(O[C@H]2O[C@H](CO)[C@@H](O)[C@H](O)[C@H]2O)[C@@H](O)[C@@H]1O` [sucrose] yielded a Km (acINV [1]) of 8.8 ± 2.4 mM and a Km (acINV [2]) of 5.8 ± 1.9 mM.
